Entries after “also recorded” stand apart in the source; their conditions may differ. Residues, ends and D or L forms follow the SMILES beside them. *: point of attachment. Cbz = O=C(OCc1ccccc1)*
Columns and labels:
glutamine synthase = assay: MG132 effect on glutamine synthase levels in GS (over)expressing erythroblasts, flow cytometry; type: cell-based, human; conditions: MG132 added at day 15, expression measured at day 19
From the text: To investigate the degree to which exogenous enzyme expression is retained during erythropoiesis, four different enzymes were expressed in CD34+ haematopoietic stem cells (using lentivirus) and subsequently differentiated to reticulocytes: glutamine synthase (FIG. 8), adenosine deaminase (FIG. 9), L-asparaginase (FIG. 10), and uricase (FIG. 11). The exogenous proteins Uricase (a bacterial enzyme), human L-asparaginase (ASP) and human […] (ADA) were tagged with c-Myc to facilitate measurement of expression during differentiation by flow cytometry and western blot. GAPDH is an endogenous enzyme which was also blotted for in some cases. For human glutamine synthetase (GS) an antibody specific for this protein was used to detect expression by flow cytometry. The bar graphs in FIGS. 8-11 show expression of indicated enzymes during differentiation as assessed by flow cytometry across two different cultures. Western blots illustrate expression of the enzymes in in vitro derived reticulocytes. To explore whether ubiquitination enhances GS enzyme retention at the end of the culture, MG132 (a ubiquitin inhibitor) was added at day 15 to the GS (over)expressing erythroblasts. Expression was measured at day 19 by flow cytometry.

[1] = system: thymidine phosphorylase (TP); assay: Effect of degradation inhibitors on TP expression in differentiating cTP cells; type: cell-based, human; conditions: day 14 cTP cells, 24 hours incubation; 10 μM leupeptin or 5 μM MG132
From the text: The substantial loss of TP enzyme expression during differentiation could mean that TP is being actively degraded during terminal differentiation. To test whether exogenous TP degradation during differentiation is due to ubiquitination or lysosomal degradation, we subjected the day 14 (orthochromatic erythrocytes) cTP cells to an ubiquitination inhibitor MG132, or a lysosomal degradation inhibitor, leupeptin (Tsubuki, S., et al., J Biochem, 1996, 119(3), p. 572-6; Hershko, A. and A. Ciechanover, Annu Rev Biochem, 1982, 51, p. 335-64). TP expression was first measured on day 14 and then 24 hours after incubation with inhibitors or the vehicle control.
As previously described (Griffiths, R. E., et al., Blood, 2012. 119(26), p. 6296-306), CD34+ haemopoietic stem cells (HSC) here isolated from human blood donor mononuclear cells or from thawed cryopreserved cord blood units by magnetic bead separation according to manufacturer's instructions (Miltenyi Biotech Ltd, Bisley UK). CD34+ cells were grown at a density of 2×10^5 cells/ml using a base medium consisting of IMDM (Source BioScience) containing 3% (v/v) AB Serum, 2 mg/ml HSA, 10 μg/ml Insulin, 3U/ml heparin, 500 μg/ml transferrin and 3U/ml Epo. […] Cells where fixed with paraformaldehyde and analysed by flow cytometry.

[2] = biological target: T1, thymidine phosphorylase (TP) (Homo sapiens, UniProt P19971); assay: Thymidine supplementation of differentiation media, TP enzyme abundance in reticulocytes; type: cell-based
T1 construct: expressed in transfected cells; host or cells: CD34+-derived cultured human erythroid progenitors (cTP) and BEL-A erythroid cells (bTP), lentiviral XLG3 vector
T1 sequence (P19971 11-482): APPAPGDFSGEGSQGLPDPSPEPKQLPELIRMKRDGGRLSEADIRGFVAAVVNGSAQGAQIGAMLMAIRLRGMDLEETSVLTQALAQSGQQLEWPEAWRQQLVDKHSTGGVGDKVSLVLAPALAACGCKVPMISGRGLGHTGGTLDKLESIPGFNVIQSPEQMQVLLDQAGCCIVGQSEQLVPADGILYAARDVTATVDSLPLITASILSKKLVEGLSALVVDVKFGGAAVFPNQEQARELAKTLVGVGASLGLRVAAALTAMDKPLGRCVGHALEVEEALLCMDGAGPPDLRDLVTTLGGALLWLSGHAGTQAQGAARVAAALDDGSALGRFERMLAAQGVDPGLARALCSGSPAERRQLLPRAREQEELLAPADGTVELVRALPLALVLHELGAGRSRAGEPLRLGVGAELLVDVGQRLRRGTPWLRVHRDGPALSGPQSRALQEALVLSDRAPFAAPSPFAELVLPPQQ
From the text: After further examination of the molecular human TP structure we observed that the 2 ubiquitination sites that correspond with murine TP, would only be available for ubiquitination in the absence of substrate.
Reticulocytes were identified by gating upon Hoechst-negative population.

[3] = system: in vitro cultured erythroid cells; type: cell-based; conditions: 0.5 mM thymidine added early, e.g. Day 0 of differentiation; data not shown

In the case of `CC(C)C[C@@H](C=O)NC(=O)[C@H](CC(C)C)NC(=O)[C@H](CC(C)C)NC(=O)OCc1ccccc1` [MG132] (Cbz-Leu-Leu-Leu-aldehyde), the “glutamine synthase levels in reticulocytes” value (glutamine synthase) is reported as “increases glutamine synthase levels in reticulocytes” and the “effect on TP degradation during differentiation” value [1] is reported as “protected TP from degradation during differentiation; also recorded: inhibition of degradation was observed”.
With `CC(=O)N[C@@H](CC(C)C)C(=O)N[C@@H](CC(C)C)C(=O)N[C@H](C=O)CCCNC(=N)N` [leupeptin] the “effect on TP degradation during differentiation” value [1] was “did not impair degradation”.
With `Cc1cn([C@H]2C[C@H](O)[C@@H](CO)O2)c(=O)[nH]c1=O` [thymidine] the “TP enzyme abundance compared to standard differentiation media” value ([2]; bTP reticulocytes, 0.5 mM thymidine daily from day 6 (polychromatic erythroblast stage)) was “doubled”, the “TP enzyme abundance compared to standard differentiation media” value ([2]; cTP reticulocytes, 0.5 mM thymidine daily from day 14 (polychromatic erythroblast stage)) was “doubled” and the “concentration of active TP in the reticulocyte” value ([2]; thymidine added to the media, un-mutated ubiquitination site) was “roughly double”. The “cell death and differentiation” value [3] was “increase in cell death and inhibition of differentiation”.

Reference: US20220333077A1, “Product for Therapy and Methods” (The University of Bristol, priority 2019, published 2022)
